{"source": "patent US12527773B2", "about": "“Flavi-block: a pan-flavivirus inhibitor” (Baden-Württemberg Stiftung GmbH, priority 2020, dated 2026)", "key": {"[1]": {"assay": "Pharmacokinetic study in Balb/c mice, intravenous administration", "format": "in vivo", "parameters": "Kel (Lambda_z): unit not given here", "conditions": "for Plasma concentration, Group A-D: single animals; for half-life: iv", "method": "Study design, animal selection, handling and treatment were all in accordance with the study protocols and institutional animal care and use guidelines. Male Balb/c mice (9-10 weeks old, body weight 22.3 to 38.1 g and average body weight across all groups 31.4 g, SD=3.20 g) were used in this study. The animals were randomly assigned to the treatment groups before the pharmacokinetic study; all animals were fasted for 4 h before dosing. Six time points for PO (15, 30, 60, 120, 240 and 360 min) and IV (5, 15, 30, 60, 120 and 240 min) routes were used in this pharmacokinetic study. Each of the PO and IV time point treatment groups included 4 animals. There was also control group of 2 animals. Dosing was done according to the treatment schedules outlined in Table 3. Mice were injected IV with 2,2,2-tribromoethanol at the dose of 150 mg/kg prior to taking blood. Blood collection was performed from the orbital sinus in microtainers containing K2EDTA. Animals were sacrificed by cervical dislocation after blood samples collection. All samples were immediately prepared, flash-frozen and stored at −70° C. until subsequent bioanalysis.\nSamples Processing Plasma samples ([…]) were mixed with […] of IS solution. After mixing by pipetting and centrifuging for 4 min at 6,000 rpm, […] of each supernatant was injected into LC-MS/MS system. Solution of compound IS-02-03 (200 ng/ml in acetonitrile-methanol mixture, 1:1, v/v) was used as internal standard (IS) for quantification of C10 in plasma samples. Samples Analysis The concentrations of C10 were determined using high performance liquid chromatography/tandem mass spectrometry (HPLC-MS/MS). Shimadzu H PLC system comprised of 2 isocratic pumps LC-10Advp, an autosampler SIL-HTc, a sub-controller FCV-14AH and a degasser DGU-14A. Mass spectrometric analysis was performed using an API 3000 (triple-quadrupole) instrument from AB Sciex (Canada) with an electro-spray (ESI) interface. The data acquisition and system control was performed using Analyst 1.5.2 software from AB Sciex. HPLC-MS/MS Conditions\nThe pharmacokinetic data analysis was performed using non-compartmental, bolus injection or extravascular input analysis models in WinNonlin 5.2 (PharSight). Data below LLOQ were presented as missing to improve validity of T1/2 calculations. No outlier data points were removed from calculations. The bioavailability for the peroral route was calculated as: […]"}, "ZIKA": {"system": "ZIKA", "assay": "IC50 in established virological assays (Table 1), ZIKA", "format": "cell-based", "conditions": "Zika virus"}, "HCV": {"system": "HCV", "assay": "Antiviral effect on HCV (virus release), Jc1-Luc-IRES in Huh7.5 cells"}, "DENV1": {"system": "DENV1", "assay": "Plaque assay of released virus, DENV1-infected Vero cells", "format": "cell-based", "conditions": "Dengue virus", "method": "(§1) Vero cells were infected with DENV1-4 at an MOI of 1 for 2 h (post infection, p.i., (A)), after which virus was removed, and fresh maintenance medium containing 2% FCS together with the indicated concentration of C10 added. For co-treat condition (c.t., (B)), Vero cells were infected with DENV1-4 at an MOI of 1 in the presence of C10 for 2 h, followed by removal of the virus/C10 inoculums, and addition of fresh 2% fetal calf serum maintenance medium. […] Results represent the mean ±SD for duplicate wells from a single assay, representative of 2 independent experiments (cf. Tables 2A and 2B, infra, for pooled data).\n(§2) Vero and BHK-21 cells were maintained in DMEM media supplemented with 10% heat-inactivated FBS at 37° C. in a humidified incubator supplemented with 5% CO2; A549 cells were maintained in F-12K medium supplemented with 10% heat-inactivated Fetal Bovine Serum (FBS), 2 mM L-glutamine, 50 U/I penicillin, 0.05 mg/l streptomycin. […] Viral titer was subsequently determined by plaque assay (see below).\n(§3) Vero cells were seeded into 24-well plates at a density of 2×10^5 cells/well and grown overnight in culture medium at 37° C. with 5% CO2 prior to infection with RSV, KUNV, ZIKV as indicated. […] The stain was removed by rinsing the cells with tap water, and the viral plaques were counted visually. […]"}, "[2]": {"system": "ZIKV (Asian/Cook Islands/2014)", "assay": "Plaque assay of released virus, ZIKV-infected Vero cells", "format": "cell-based", "conditions": "Zika virus", "method": "as §1, with “ZIKV” for “DENV1-4”, “infection),” for “infection, p.i., (A)),”, “condition,” for “condition (c.t., (B)),”, “assay (cf. Table” for “assay, representative of”, “2” for “2 independent experiments (cf. Tables 2A and 2B, infra,”\nas §2, with “streptomycin. DENV-1-4 strains, cell culture conditions and Gen-Bank accession numbers, as well as details of RSV strains and culture are known in the art.” for “streptomycin.”\nas §3, with “indicated. BHK-21 cells were used for DENV1-4.” for “indicated.”"}, "[3]": {"conditions": "male, Balb/c, mouse, plasma, IV 5 mg/kg"}}, "note": "“And” between values parts separate entries of the source, which are not always exact repeats. Equal values may be shown once. “Also recorded” adds a separate entry of the source. Read-outs that look alike come from different tables or passages of the source."}
{"smiles": "CCN1/C(=C\\C=C\\c2sc3cc(NC(C)=O)ccc3[n+]2CC)Sc2cc(NC(C)=O)ccc21.[I-]", "note": "[C10, 6-acetamido-2-((1E,3E)-3-(6-acetamido-3-ethylbenzo[d]thiazol-2(3H)-ylidene)prop-1-en-1-yl)-3-ethylbenzo[d]thiazol-3-ium iodide]", "values": [{"measurement": "Kel (Lambda_z)", "setting": "[1]; IV 5 mg/kg", "result": 0.00581}, {"measurement": "Vd (Vz_obs)", "setting": "[1]; IV 5 mg/kg", "result": 14.1, "unit": "L/kg"}, {"measurement": "Plasma concentration, Mean", "setting": "[1]; IV 5 mg/kg, 5 min", "result": "2690 ng(ml)"}, {"measurement": "Plasma concentration, Group A-D", "setting": "[1]; IV 5 mg/kg, 5 min, 5 mg/kg", "result": "2780 ng(ml) and 2310 ng(ml) and 2606 ng(ml) and 3063 ng(ml)"}, {"measurement": "Plasma concentration, Mean", "setting": "[1]; IV 5 mg/kg, 15 min", "result": "311 ng(ml)"}, {"measurement": "Plasma concentration, Group A-D", "setting": "[1]; IV 5 mg/kg, 15 min, 5 mg/kg", "result": "185 ng(ml) and 316 ng(ml) and 521 ng(ml) and 221 ng(ml)"}, {"measurement": "Plasma concentration, Mean", "setting": "[1]; IV 5 mg/kg, 30 min", "result": "154 ng(ml)"}, {"measurement": "Plasma concentration, Group A-D", "setting": "[1]; IV 5 mg/kg, 30 min, 5 mg/kg", "result": "109 ng(ml) and 152 ng(ml) and 189 ng(ml) and 164 ng(ml)"}, {"measurement": "Plasma concentration, Mean", "setting": "[1]; IV 5 mg/kg, 60 min", "result": "109 ng(ml)"}, {"measurement": "Plasma concentration, Group A-D", "setting": "[1]; IV 5 mg/kg, 60 min, 5 mg/kg", "result": "93 ng(ml) and 160 ng(ml) and 89 ng(ml) and 92 ng(ml)"}, {"measurement": "Plasma concentration, Mean", "setting": "[1]; IV 5 mg/kg, 120 min", "result": "60 ng(ml)"}, {"measurement": "Plasma concentration, Group A-D", "setting": "[1]; IV 5 mg/kg, 120 min, 5 mg/kg", "result": "69 ng(ml) and 44 ng(ml) and 59 ng(ml) and 67 ng(ml)"}, {"measurement": "Plasma concentration, Mean", "setting": "[1]; IV 5 mg/kg, 240 min", "result": "43 ng(ml)"}, {"measurement": "Plasma concentration, Group A-D", "setting": "[1]; IV 5 mg/kg, 240 min, 5 mg/kg", "result": "47 ng(ml) and 43 ng(ml) (2×) and 40 ng(ml)"}, {"measurement": "tolerability in mice", "setting": "[1]; IV, 5 mg/kg", "result": "tolerated; also recorded: not toxic at high concentrations"}, {"measurement": "Vd", "setting": "[1]; male, Balb/c, mouse, plasma, 5 mg/kg, calculated, IV, read-out: volume of distribution", "result": 14.1, "unit": "L/kg"}, {"measurement": "half-life", "setting": "[1]; male, Balb/c, mouse, plasma, 5 mg/kg, IV 5 mg/kg, read-out: T1/2 (HL_Lambda_z)", "result": 1.98, "unit": "h"}, {"measurement": "half-life", "setting": "[1]; male, Balb/c, mouse, plasma, 5 mg/kg, mice, IV administration, read-out: half-life in plasma/serum (converted)", "result": "~2", "unit": "h"}, {"measurement": "Cmax", "setting": "[1]; [3]", "result": 2690, "unit": "ng/mL"}, {"measurement": "Tmax", "setting": "[1]; [3]", "result": 5, "unit": "min"}, {"measurement": "AUC(0-t)", "setting": "[1]; male, Balb/c, mouse, plasma, IV 5 mg/kg, read-out: AUC0→t = 240 min (AUClast) (converted)", "result": 892, "unit": "ng·h/mL"}, {"measurement": "AUC(0-inf)", "setting": "[1]; male, Balb/c, mouse, plasma, IV 5 mg/kg, read-out: AUC0→∞ (AUCINF_obs) (converted)", "result": 1020, "unit": "ng·h/mL"}, {"measurement": "clearance", "setting": "[1]; male, Balb/c, mouse, plasma, IV 5 mg/kg, read-out: CL (Cl_obs)", "result": 82.1, "unit": "mL/min/kg"}, {"measurement": "MRT inf", "setting": "[1]; male, Balb/c, mouse, plasma, IV 5 mg/kg, read-out: MRT (MRTinf) (converted)", "result": 1.36, "unit": "h"}, {"measurement": "MRT last", "setting": "[1]; male, Balb/c, mouse, plasma, IV 5 mg/kg, read-out: MRT (MRTlast) (converted)", "result": 0.59, "unit": "h"}, {"measurement": "IC50", "setting": "ZIKA", "result": "100 to 200", "unit": "nM"}, {"measurement": "antiviral effect on release of infectious HCV", "setting": "HCV; 24 h treatment", "result": "antiviral effects even at low concentrations"}, {"measurement": "therapeutic index CC50/EC50", "setting": "HCV; HCV virus release, Huh7.5", "result": "approximately 590"}, {"measurement": "EC50", "setting": "DENV1; read-out: EC50 from plaque assays, DENV1, c.t. (co-treat)", "result": 40, "unit": "nM"}, {"measurement": "EC50", "setting": "DENV1; read-out: EC50 from plaque assays, DENV1, p.i. (post infection)", "result": 110, "unit": "nM"}, {"measurement": "EC50", "setting": "[2]; read-out: EC50 from plaque assays, ZIKV, c.t.", "result": 90, "unit": "nM"}, {"measurement": "EC50", "setting": "[2]; read-out: EC50 from plaque assays, ZIKV, p.i.", "result": 210, "unit": "nM"}]}
